Reference: patent US9499551B2, “Substituted pyrrolo[2,3-b]pyridines for treating cancer or inflammatory diseases” (Confluence Life Sciences, Inc., priority 2014, dated 2016)

Experiments:
TAK1-TAB1 = biological target: T1, TAK1-TAB1 (Homo sapiens, UniProt O43318); experiment: TAK1-TAB1 binding inhibitory potency (LanthaScreen competitive binding assay, kinase tracer-236); conditions: 10 nM TAK1-TAB1, 100 nM kinase tracer-236; read-out: TAK1-Tab Inhibition IC50
T1 sequence (O43318 with tags, fused parts or gaps limits assumed): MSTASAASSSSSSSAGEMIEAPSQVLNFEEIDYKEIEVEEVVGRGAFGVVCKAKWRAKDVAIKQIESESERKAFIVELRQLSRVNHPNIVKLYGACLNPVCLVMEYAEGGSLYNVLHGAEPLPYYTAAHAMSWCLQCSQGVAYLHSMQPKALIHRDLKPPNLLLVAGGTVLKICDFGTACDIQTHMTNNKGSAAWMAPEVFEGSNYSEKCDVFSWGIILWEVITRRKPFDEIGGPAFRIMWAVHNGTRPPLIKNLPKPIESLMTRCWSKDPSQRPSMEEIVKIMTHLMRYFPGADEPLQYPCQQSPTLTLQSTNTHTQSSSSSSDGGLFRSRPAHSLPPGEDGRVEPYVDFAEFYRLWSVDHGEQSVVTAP
Procedure, shortened: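 Compounds were tested for TAK1-TAB1 binding in a 384-well LanthaScreen competitive FRET assay. TAK1-TAB1 (10 nM) and Eu-anti-his antibody (2 nM) were preincubated with compound for two hours before adding 100 nM Alexa Fluor 647 kinase tracer-236. The buffer was 20 mM HEPES pH 7.5, 10 mM MgCl2, 0.01% BSA, 0.0005% Tween-20 and 2% DMSO. IC50 came from 4-parameter logistic fits of emission ratio over an 11-point series from 20 μM to 0.34 nM.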

[1] = system: IL-6 Production in Human Peripheral Blood Mononuclear Cells (PBMC); experiment: LPS stimulated IL-6 production in PBMC cells; assay type: cell-based; conditions: read-out: IL-6 Production Inhibition IC50

IC50 (TAK1-TAB1) | SMILES | IC50 [1]
≤ 1000 nM | NC(=O)/C=C/c1c[nH]c2ncc(-c3cncnc3)cc12 [Example 286, (E)-3-(5-(pyrimidin-5-yl)-1H-pyrrolo[2,3-b]pyridin-3-yl)acrylamide] | > 1000 nM
≤ 1000 nM | NC(=O)/C=C/c1c[nH]c2ncc(-c3ccc(C(=O)N4CCCCC4)cc3)cc12 [Example 262, (E)-3-(5-(4-(piperidine-1-carbonyl)phenyl)-1H-pyrrolo[2,3-b]pyridin-3-yl)acrylamide] | ≤ 1000 nM
≤ 1000 nM | COc1ccc(-c2cnc3[nH]cc(/C=C/C(N)=O)c3c2)cn1 [Example 20, (E)-3-(5-(6-methoxypyridin-3-yl)-1H-pyrrolo[2,3-b]pyridin-3-yl)acrylamide] | ≤ 1000 nM
≤ 1000 nM | NC(=O)/C=C/c1c[nH]c2ncc(Cc3ccc(F)cc3)cc12 [Example 274, (E)-3-(5-(4-fluorobenzyl)-1H-pyrrolo[2,3-b]pyridin-3-yl)acrylamide] | ≤ 1000 nM
≤ 1000 nM | N#Cc1ccc(-c2cnc3[nH]cc(/C=C/C(N)=O)c3c2)cc1 [Example 17, 3-[5-(4-Cyano-phenyl)-1H-pyrrolo[2,3-b]pyridin-3-yl]-acrylamide] | ≤ 1000 nM
≤ 1000 nM | CS(=O)(=O)c1ccc(-c2cnc3[nH]cc(/C=C/C(N)=O)c3c2)cc1 [Example 23, (E)-3-(5-(4-(methylsulfonyl)phenyl)-1H-pyrrolo[2,3-b]pyridin-3-yl)acrylamide] | > 1000 nM
≤ 1000 nM | NC(=O)/C=C/c1c[nH]c2ncc(-c3ccc(C(F)(F)F)cc3)cc12 [Example 252, (E)-3-(5-(4-(trifluoromethyl)phenyl)-1H-pyrrolo[2,3-b]pyridin-3-yl)acrylamide] | ≤ 1000 nM
≤ 1000 nM | Cn1cc(-c2cnc3[nH]cc(/C=C/C(N)=O)c3c2)cn1 [Example 5, (E)-3-(5-(1-Methyl-1H-pyrazol-4-yl)-1H-pyrrolo[2,3-b]pyridin-3-yl)acrylamide] | ≤ 1000 nM
≤ 1000 nM | NC(=O)/C=C/c1c[nH]c2ncc(-c3ccc(F)cc3F)cc12 [Example 2, (E)-3-(5-(2,4-Difluorophenyl)-1H-pyrrolo[2,3-b]pyridin-3-yl)acrylamide] | ≤ 1000 nM

The next lines start with the molecule.

SMILES | IC50 (TAK1-TAB1) | IC50 [1]
CC(C)Nc1cnc2[nH]cc(/C=C/C(N)=O)c2n1 [Example 10, 3-(2-Isopropylamino-5H-pyrrolo[2,3-b]pyrazin-7-yl)-acrylamide] | ≤ 1000 nM | ≤ 1000 nM
CC(C)Oc1cnc2[nH]cc(/C=C/C(N)=O)c2c1 [Example 8, 3-(5-Isopropoxy-1H-pyrrolo[2,3-b]pyridin-3-yl)-acrylamide] | ≤ 1000 nM | ≤ 1000 nM
CC(C)(O)CN1CCN(c2cnc3[nH]cc(/C=C/C(N)=O)c3c2)CC1 [Example 289, (E)-3-(5-(4-(2-hydroxy-2-methylpropyl)piperazin-1-yl)-1H-pyrrolo[2,3-b]pyridin-3-yl)acrylamide] | ≤ 1000 nM | > 1000 nM
CC(C)Nc1cnc2[nH]cc(/C=C/C(N)=O)c2c1 [Example 9, 3-(5-Isopropylamino-1H-pyrrolo[2,3-b]pyridin-3-yl)-acrylamide] | ≤ 1000 nM | ≤ 1000 nM
CC(C)(C)C(=O)NC1CN(c2cnc3[nH]cc(/C=C/C(N)=O)c3c2)C1 [Example 282, (E)-3-(5-(3-pivalamidoazetidin-1-yl)-1H-pyrrolo[2,3-b]pyridin-3-yl)acrylamide] | > 1000 nM | > 1000 nM
CC(C)C(=O)NC1CN(c2cnc3[nH]cc(/C=C/C(N)=O)c3c2)C1 [Example 283, (E)-3-(5-(3-isobuty-ramidoazetidin-1-yl)-1H-pyrrolo[2,3-b]pyridin-3-yl)acrylamide] | ≤ 1000 nM | ≤ 1000 nM
CC(C)(C)OC(=O)NC1CN(c2cnc3[nH]cc(/C=C/C(N)=O)c3c2)C1 [Example 269, (E)-tert-butyl(1-(3-(3-amino-3-oxoprop-1-en-1-yl)-1H-pyrrolo[2,3-b]pyridin-5-yl)azetidin-3-yl)carbamate] | ≤ 1000 nM | ≤ 1000 nM
